Values of other authors in patent US6107296A, “Neuroprotective use of triazolo-pyridazine derivatives” (Merck Sharp & Dohme, Ltd., priority 1997, dated 2000).

How the values were obtained:
[1] = test system: selectively vulnerable neuronal populations in the gerbil forebrain; conditions: gerbil forebrain ischemia model
[2] = test system: GABAA receptor subtypes containing the α1 and α3 or α5 subunits
[3] = test system: GABAA receptor subtypes containing the α1 and α3 or α5 subunits; conditions: partial agonist at each of the α1, α3 or α5 containing receptors

## C[C@@H]1CN(C(=O)c2cc3c(C(=O)OC(C)(C)C)ncn3c3ccc(Cl)cc23)C[C@H](C)N1 [PNU-101017]
[1]
  neuronal survival: dose-related increase in neuronal survival
[2]
  affinity for GABAA receptor subtypes: high affinity
[3]
  intrinsic activity relative to the full agonist diazepam: approximately 50%
